Experimental data as given in publication PMC3894558, “Chemical signatures and new drug targets for gametocytocidal drug development” (Scientific Reports, 2014).
Like-named read-outs stand apart in the source and are kept apart here.

Test system: P. falciparum 3D7 gametocytes
Assay: alamarBlue gametocyte viability assay, strain 3D7
Type: cell-based, Plasmodium falciparum
Conditions: for Max Resp: DMSO set at 0%, 100 nM epoxomicin set at -100%; for Curve Class / IC50: stages III-V 3D7 gametocytes; for IC50: 11 concentrations, 1:3 dilution; call rule not given here

Row | IC50 (Malaria Box) | IC50 (Malaria Box, read-out: IC50) | IC50 (Plasmodium falciparum, 3D7, Malaria Box, read-out: IC50) | SMILES | Max Resp (Malaria Box) | Curve Class (Malaria Box)
1 | – | 23.5 µM | – | COc1ccc2nc(C)cc(Nc3ccccc3O)c2c1 [MMV274073] | -66% | -2.2
2 | – | 23.5 µM | – | COc1ccc(-c2nonc2NC(=O)c2cccc(Cl)c2)cc1OC [MMV020660] | -67% | -2.2
3 | Inactive | – | – | CCc1ccc(Nc2cc(C)nc3nc(C)nn23)cc1 [MMV007374] | -9% | 4
4 | Inactive | – | – | CCCCN(CCCC)S(=O)(=O)c1ccc(NC(=O)c2ccco2)cc1 [MMV007881] | 15% | 4
5 | Inactive | – | – | CCCCc1ccc(NS(=O)(=O)c2cc3c4c(c2)CCN4C(=O)CC3)cc1 [MMV001255] | 2% | 4
6 | – | 11.8 µM | – | COc1cc(OC)c(N(C)C(=O)c2cc3c(s2)-c2ccccc2S(=O)(=O)C3)cc1Cl [MMV006427] | -74% | -2.2
7 | – | 9.35 µM | – | CC(C)(C)CC(C)(C)NCC(O)COc1ccc2c(c1)CCC2.Cl (stereo not drawn) [MMV665817] | -107% | -2.1
8 | – | 16.6 µM | – | CCN(CC)CCCNc1nc(-c2ccc(Cl)cc2)nc2ccccc12 [MMV665961] | -95% | -2.1
9 | Inactive | – | – | Cc1nc2ccccc2c(O)c1CC=C(Cl)Cl [MMV665994] | 5% | 4
10 | – | 6.62 µM | – | COc1ccc(-c2c(C)nn3c(N)c(C#N)cnc23)cc1OC [MMV396797] | -90% | -1.1
11 | – | 0.743 µM | – | O=C1CC(O)(C(F)(F)C(F)(F)F)Oc2ccccc21 (stereo not drawn) [MMV000972] | -32% | -1.4
12 | Inactive | – | – | CCOc1ccc(-n2cc(-c3ccccc3)c3c(SCc4cc(C)ccc4C)ncnc32)cc1 [MMV085471] | 1% | 4
13 | – | 37.2 µM | – | COc1cc(-c2nc(-c3ccccc3)c(-c3ccccc3)[nH]2)cc(OC)c1O [MMV020750] | -55% | -2.2
14 | Inactive | – | – | N#Cc1nc(Cc2cccc3ccccc23)oc1N1CCN(C(c2ccccc2)c2ccccc2)CC1 [MMV396726] | -1% | 4
15 | – | 14.8 µM | – | FC(F)(F)c1cccc(CNC2CCN(CCc3ccccc3)CC2)c1 [MMV665979] | -89% | -2.1
16 | Inactive | – | – | O=C(NCC1Cc2cccc(-c3ccncc3)c2O1)c1csc2c1CCCC2 (stereo not drawn) [MMV665954] | 5% | 4

Row | IC50 (Malaria Box) | IC50 (Malaria Box, read-out: IC50) | IC50 (Plasmodium falciparum, 3D7, Malaria Box, read-out: IC50) | SMILES | Max Resp (Malaria Box) | Curve Class (Malaria Box)
17 | – | 18.7 µM | – | O=C(Nc1nc(-c2ccccn2)cs1)c1ccccc1Br [MMV665909] | -65% | -2.2
18 | – | 7.43 µM | – | CCOC(=O)c1c(NC(=O)c2ccccc2)sc2c(O)c(CN(CC)CC)ccc12 [MMV665831] | -58% | -2.2
19 | – | 0.662 µM | – | Oc1ccccc1CN1CCC2(CCCN(Cc3ccccc3F)C2)C1 (stereo not drawn) [MMV666116] | -46% | -1.2
20 | – | 5.26 µM | – | CCOC(=O)C1(Cc2ccccc2)CCN(Cc2cccc(OC)c2O)CC1 [MMV666109] | -58% | -1.2
21 | Inactive | – | – | O=C(NC1CCN(Cc2ccccc2)CC1)c1cc2nc(-c3ccc(Cl)s3)cc(C(F)(F)F)n2n1 [MMV396635] | -24% | 4
22 | – | 1.87 µM | – | CN(C)CCCNc1c2ccccc2nc2ccccc12 [MMV000448] | -105% | -1.1
23 | Inactive | – | – | CCCc1c(C)nc2ccc(Br)cc2c1O [MMV666095] | 28% | 4
24 | Inactive | – | – | COc1cc(SC)ccc1C(=O)N1CCCC(C)C1 (stereo not drawn) [MMV056726] | -5% | 4
25 | – | 18.7 µM | – | CCOc1ccc(/C=C/c2nc(=O)c3ccccc3o2)cc1 [MMV665940] | 46% | 2.2
26 | – | 29.6 µM | – | Cc1[nH]c(-c2ccc(F)cc2)cc1C(=O)NC1CCN(Cc2ccccc2)CC1 [MMV019738] | -61% | -2.2
27 | – | 7.43 µM | – | CCOC(=O)C1=C(C)N=c2sc(=Cc3ccccc3O)c(=O)n2C1c1ccc(OC)c2ccccc12 (stereo not drawn) [MMV666604] | -68% | -1.2
28 | Inactive | – | – | COc1ccc(-c2cc3c(nn2)-c2ccccc2C3=O)cc1 [MMV666026] | 0% | 4
29 | – | 9.35 µM | – | O=C(NC(c1ccccc1)c1ccc2cccnc2c1O)c1ccccc1 (stereo not drawn) [MMV666080] | -75% | -2.2
30 | Inactive | – | – | COc1ccc(-c2nc(N3CCN(C(=O)C4CCCCC4)CC3)c3c4c(sc3n2)CCCC4)cc1 [MMV396594] | -12% | 4
31 | – | 5.9 µM | – | COc1cc2c3cc1Oc1c(OC)c(OC)cc4c1C(Cc1ccc(O)c(c1)Oc1ccc(cc1)CC3N(C)CC2)N(C)CC4.Cl (stereo not drawn) [MMV007474] | -93% | -1.1
32 | – | 14.8 µM | – | Cc1ccc(Nc2nc(N)c3ccccc3n2)cc1Cl [MMV011522] | -73% | -2.2

More lines, now with the values behind:

Row | SMILES | IC50 (Malaria Box) | IC50 (Malaria Box, read-out: IC50) | IC50 (Plasmodium falciparum, 3D7, Malaria Box, read-out: IC50) | Max Resp (Malaria Box) | Curve Class (Malaria Box)
33 | O=C(NCC(c1ccsc1)N1CCCCCC1)c1ccc(C(F)(F)F)cc1 (stereo not drawn) [MMV396672] | Inactive | – | – | -37% | -2.2
34 | O=C(Nc1ccc(C23CC4CC(CC(c5ccccc5)(C4)C2)C3)cc1)c1cccs1 [MMV007574] | Inactive | – | – | 12% | 4
35 | Nc1ccc(-c2nc3cc(Oc4ccc(Oc5ccc6[nH]c(-c7ccc(N)cc7)nc6c5)cc4)ccc3[nH]2)cc1 [MMV011895] | – | 18.7 µM | – | -78% | -2.2
36 | CC1CCN(Cc2c(O)ccc3cc(-c4nc5ccccc5s4)c(=O)oc23)CC1 [MMV009127] | – | 29.6 µM | – | -72% | -2.2
37 | Oc1ccc(Cl)cc1CNc1nc2ccccc2[nH]1 [MMV665850] | Inactive | – | – | -50% | -2.2
38 | CN1C=C(c2ccc3ccccc3n2)C(c2c[nH]c3ccccc23)c2ccccc21 (stereo not drawn) [MMV008160] | – | 14.8 µM | – | -87% | -2.1
39 | O=C(Nc1ccc(Cl)cc1C(=O)Nc1ccncc1)c1ccc(Cl)cc1Cl [MMV666057] | – | 29.6 µM | – | -57% | -2.2
40 | Cc1ccc(S(=O)(=O)c2c(COC(=O)c3cccc(C)c3)c(-c3ccccc3)nn2C)cc1 [MMV665936] | Inactive | – | – | 5% | 4
41 | Cc1ccc(C2CC(C(F)(F)F)n3nc(C(=O)N4CCN(C(c5ccccc5)c5ccccc5)CC4)cc3N2)cc1 (stereo not drawn) [MMV000699] | – | 29.6 µM | – | -70% | -2.2
42 | CC1CCCCN1CCCNC(=O)c1ccc2c(c1)sc1nc(-c3ccc(F)cc3)cn12 (stereo not drawn) [MMV000634] | – | 10.5 µM | – | -84% | -2.1
43 | Cc1ccccc1OCCSc1nc2ccc(NC(=O)c3ccccc3)cc2s1 [MMV007577] | Inactive | – | – | 18% | 4
44 | CCN(CC)CCNc1ccnc2cc(Cl)ccc12 [MMV006087] | – | 0.372 µM | – | -66% | -1.2
45 | O=C(Nc1cccc(C2=NCCN2)c1)Nc1cccc(C2=NCCN2)c1 [MMV665810] | – | – | 18.7 µM | -78% | -2.2
46 | c1ccc(Cn2c(N=Nc3c(Nc4ccccc4)ccc4ccccc34)nc3ccccc32)cc1 [MMV666023] | – | 10.5 µM | – | -89% | -2.1
47 | Oc1c(C(Nc2ccccn2)c2cccc(Oc3ccccc3)c2)ccc2cccnc12 (stereo not drawn) [MMV665814] | – | 9.35 µM | – | -107% | -2.1
48 | CN(C)CCCNCc1ccc(-c2ccc(F)c(Cl)c2)o1.Cl [MMV020505] | – | 3.32 µM | – | -98% | -1.1
49 | Cc1ccc(C)c(Cn2c(N3CCC(C(=O)NCc4cccs4)CC3)nc3ccccc32)c1 [MMV019741] | – | 37.2 µM | – | -65% | -2.2
50 | CC(C)OCc1cc(CN2CCN(c3cccc(Cl)c3)CC2)c(O)c2ncccc12 [MMV000788] | – | 8.33 µM | – | -97% | -1.1
51 | CCOc1cc2c(cc1OCC)C(c1cc(Cl)ccc1O)NCC2 (stereo not drawn) [MMV000478] | – | 4.18 µM | – | -76% | -1.2
52 | CCOc1cccc(C(=O)Nc2ccc(-c3nc4ccccc4[nH]3)cc2)c1 [MMV019202] | Inactive | – | – | -23% | 4
53 | CCOC(=O)C1CCN(C(=O)CN2C(=O)c3ccccc3C2c2c[nH]c3ccccc23)CC1 (stereo not drawn) [MMV011576] | – | 3.72 µM | – | -98% | -1.1
54 | O=C(NC1CCN(Cc2ccccc2)CC1)c1cc(-c2cccnc2)nc2ccc(Cl)cc12 [MMV020490] | – | 29.6 µM | – | -61% | -2.2
55 | O=C(O)C(=O)O.Oc1ccccc1CN1CCN(C(c2ccccc2)c2ccccc2)CC1 [MMV011795] | – | 5.9 µM | – | -53% | -2.2
56 | COc1cccc(Nc2nc(NCCO)c3ccccc3n2)c1.Cl [MMV011944] | – | 14.8 µM | – | -68% | -2.2
57 | COc1ccc(C)c2sc(N(Cc3cccnc3)C(=O)c3ccc(C#N)cc3)nc12 [MMV001241] | Inactive | – | – | -48% | -2.2
